# Where two headings read alike, the source gives them in different places. Positions of bridges follow the written chain, without caps; N, C: chain ends. Residues, ends and D or L forms follow the SMILES beside them. No end group written: not given here.
# Tests used:
# [1] = molecular target: T1, mouse NMDA receptor subunits z1 and e1 expressed in oocytes (Mus musculus, UniProt P35438); test: Electrophysiological NMDA specific activity assay, two-electrode voltage clamp in oocytes; assay type: cell-based
# T1 construct: expressed in transfected cells
# Experimental: Electrophysiological recordings are made with two-electrode voltage-clamp techniques, and standard oocyte expression system preparations (see Leonard and Kelso, 1990, Neuron 4:53-60; Kelso et al., 1992, J. Physiology 449:705-718). Oocytes are isolated and injected with mRNA for mouse NMDA receptor subunits: 70 nl of z1 (-- 1) RNA is co-injected with an equal volume of e1 (-- 1) RNA. After incubation for two days, recordings are made while clamping membrane potential at -80 mV. The standard recording solution contains 95 mM NaCl, 2 mM KCl, 3.8 mM BaCl2, and 5 mM HEPES. Mg^2+ is omitted because it blocks NMDA currents at some potentials; Ca^2+ is omitted because it can trigger the oocyte's endogenous Ca^2+ -dependent chloride current. Responses are evoked by the continuous perfusion of 3-5 ml of NMDA containing solutions. The recording chamber has a volume of about […].
# rabbits = conditions: peripheral injections; cited from earlier work
# [2] = molecular target: T2, NMDA receptor complex, glycine co-agonist site (Rattus norvegicus, UniProt P35439); assay type: biochemical; conditions: rat hippocampus membranes, in the presence of 7-chlorokynurenic acid, ± S.E.M.
# T2 construct: Crude synaptic membranes used in the assay were prepared using rat hippocampal tissue; from tissue; host or cells: rat hippocampus, crude synaptic membranes
# Experimental: Polypeptides or amino acid compositions of the instant invention were tested for the ability to mimic the glycine co-agonist effect on the NMDA receptor using a previously validated [^3 H]MK-801 binding assay. This functional assay takes advantage of the fact that increased [^3 H]MK-801 binding by NMDA receptors can only occur upon receptor-binding channel opening. This is because the MK-801 binding site is located inside the ionophore of the NMDA receptor complex, and is thus only accessible upon the opening of the receptor complex channel. Thus increased binding of [^3 H]MK-801 is directly correlated with increased channel opening, in this assay, triggered by the binding of the polypeptides or amino acid compositions of the instant invention to the glycine co-agonist binding site.
# To further refine the assay, a selective antagonist of the glycine binding site of the NMDA receptor-channel complex is added to the assay. The normal action of 7-chlorokynurenic acid is to selectively bind to the glycine site, and inhibit NMDA receptor channel opening, and thus inhibit the binding of [^3 H]MK-801 to the NMDA receptor complex.
# Crude synaptic membranes used in the assay were prepared using rat hippocampal tissue (male Sprague-Dawly rats) and extensively washed using the procedures described previously (Haring et al., 1991, J. Neurochem. 57:323-331). Briefly, tissue which has been stored at -80-- C is homogenized in ice cold 5 mM Tris (pH 7.4) using a Brinkman Polytron® and then pelleted by centrifugation at 48,000 g for 20 minutes. The resulting supernatant is discarded, and the membranes washed three times in cold buffer. Pellets are then resuspended in 5 mM EDTA, 15 mM Tris (pH 7.4), and incubated for one hour at 37-- C. The membrane suspensions are then pelleted by centrifugation at 48,000g for 20 min and stored at -80-- C until use in the assay.
# Frozen pellets are thawed at room temperature and washed three times by resuspension in 5 mM Tris (pH 7.4) and centrifugation. Final pellets are suspended at concentrations of 2 to 3 mg/ml in 5 mM Tris buffer (pH 7.4). Binding reactions are initiated by the addition of 200-- g of freshly prepared membranes to reaction mixtures (about 1 ml final volume) containing 1 nM [^3 H]MK-801 at 25-- C in the presence of a range of peptide concentrations and 60-- M 7-chlorokynurenic acid. Non-specific binding is determined using 10-- M unlabelled MK-801. Binding reactions are terminated by filtration through a Brandel 24-well cell harvester onto Whatman GF/B glass filters that have been presoaked in 0.25% polyethyleneimine for 30 minutes.
# [3] = molecular target: T2, NMDA receptor complex, glycine co-agonist site; assay type: biochemical; conditions: in the presence of 10 μM L-glutamate, ± S.E.M.
"NMDA current (FIG. 3B) ([1]; 100-- M NMDA with 10-- M glycine, -80 mV)",Compound,"NMDA current (FIG. 3B) ([1]; NMDA alone, same cell)",learning rates in trace eyeblink conditioning (rabbits),"[3H]MK-801 binding, percentage of control binding ([2]; 10^-5 M peptide)","[3H]MK-801 binding, percentage of control binding ([2]; 10^-6 M peptide)","[3H]MK-801 binding, percentage of control binding ([2]; 10^-7 M peptide)","[3H]MK-801 binding, percentage of control binding ([2]; 10^-8 M peptide)","[3H]MK-801 binding, percentage of control binding ([2]; 10^-9 M peptide)","[3H]MK-801 binding, percentage of control binding ([3]; 10^-5 M peptide)","[3H]MK-801 binding, percentage of control binding ([3]; 10^-6 M peptide)","[3H]MK-801 binding, percentage of control binding ([3]; 10^-7 M peptide)","[3H]MK-801 binding, percentage of control binding ([3]; 10^-8 M peptide)"
,"CN[C@H](CC(=O)O)C(=O)O [NMDA, N-methyl-D-aspartate]",about 7 nA,,,,,,,,,,
,N[C@@H]1CONC1=O [D-cycloserine],,doubled,,,,,,,,,
,"C[C@@H](O)[C@H](N)C(=O)N1CCC[C@H]1C(=O)N1CCC[C@H]1C(=O)O [NT-14, Thr-Pro-Pro] (H-Thr-Pro-Pro-OH)",,,95 ± 4%,98 ± 8%,96 ± 5%,101 ± 1%,89 ± 6%,,,,
,"C[C@@H](O)[C@H](NC(=O)[C@@H]1CCCN1C(=O)[C@@H]1CCCN1)C(=O)O [NT-15, Pro-Pro-Thr] (H-Pro-Pro-Thr-OH)",,,93 ± 1%,108 ± 12%,100 ± 7%,103 ± 2%,99 ± 21%,,,,
about 284 nA,NCC(=O)O [glycine],,,,,,,,,,,
,"SASYRYT [NT-2, Ser-Ala-Ser-Tyr-Arg-Tyr-Thr]",,,,,,,,77 ± 12%,106 ± 4%,109 ± 15%,80 ± 9%
,"O=C(O)[C@@H]1CCCN1C(=O)[C@@H]1CCCN1 [NT-16, Pro-Pro] (H-Pro-Pro-OH)",,,117 ± 12%,103 ± 3%,97 ± 6%,89 ± 8%,83 ± 9%,,,,
,C[C@@H](O)[C@@H]1NC(=O)[C@@H]2CCCN2C(=O)[C@@H]2CCCN2C(=O)[C@H]([C@@H](C)O)NC(=O)[C@H](CO)NC(=O)[C@H](Cc2ccc(O)cc2)NC(=O)[C@H](Cc2c[nH]cn2)NC(=O)[C@H](CCC(N)=O)NC(=O)[C@H](CCC(N)=O)NC(=O)[C@@H](N)CSSC[C@@H](C(=O)O)NC1=O [NT-10] (H-CQQHYSTPPTC-OH; disulfide 1-11),,,116 ± 12%,128 ± 4%,114 ± 3%,90 ± 8%,100 ± 2%,,,,
,"C[C@@H](O)[C@H](N)C(=O)N1CCC[C@H]1C(=O)N[C@H](C(=O)O)[C@@H](C)O [NT-17, Thr-Pro-Thr] (H-Thr-Pro-Thr-OH)",,,119 ± 21%,117 ± 14%,128 ± 9%,125 ± 17%,122 ± 23%,,,,
,EDLAVYYSQQHYSTPPT [NT-5],,,112 ± 4%,106 ± 2%,114 ± 2%,100 ± 9%,109 ± 8%,,,,
,QQHYSTPPTFGGGTKLE [NT-9],,,120 ± 3%,112 ± 10%,125 ± 5%,126 ± 7%,104 ± 12%,,,,
,VYYSQQHYSTPPT [NT-4],,,109 ± 10%,110 ± 1%,116 ± 2%,106 ± 6%,106 ± 2%,,,,
,QQHYSTPPTFGGG [NT-8],,,115 ± 6%,107 ± 6%,108 ± 4%,110 ± 5%,105 ± 7%,,,,
,FTISSVQAELDLAVYYSQQHYSTPPT [NT-7],,,100 ± 3%,104 ± 0%,97 ± 1%,103 ± 4%,96 ± 4%,,,,
,KASQDVSTTVA [NT-1],,,,,,,,73 ± 6%,100 ± 2%,97 ± 2%,
,QQHYSTPPT [NT-3],,,90 ± 1%,111 ± 11%,121 ± 4%,123 ± 0%,112 ± 20%,,,,
,SQQHYSTPPTS [NT-11],,,127 ± 21%,120 ± 11%,118 ± 4%,111 ± 4%,96 ± 23%,,,,
,"QQHYS [NT-12, Gln-Gln-His-Tyr-Ser]",,,106 ± 2%,106 ± 9%,95 ± 7%,104 ± 10%,95 ± 21%,,,,
,SVQAELDLAVYYSQQHYSTPPT [NT-6],,,91 ± 7%,96 ± 1%,101 ± 15%,101 ± 9%,95 ± 6%,,,,
,"C[C@@H](O)[C@H](N)C(=O)N1CCC[C@H]1C(=O)N1CCC[C@H]1C(=O)N[C@H](C(=O)O)[C@@H](C)O [NT-13, Thr-Pro-Pro-Thr] (H-TPPT-OH)",,,117 ± 7%,129 ± 10%,110 ± 10%,103 ± 8%,97 ± 8%,,,,

# Source: patent US6107271A, “Neuroactive peptides” (NYXIS Neuro Therapies, Inc., priority 1998, dated 2000)
